Like-named read-outs stand apart in the source and are kept apart here.
Tests used:
Assay type in all cases: cell-based
[1] = test system: human MD-MBA-231 breast cancer cells; assay: CellTiter-Blue cell viability, 6-hour pretreatment before doxorubicin administration; settings: for 72 Hours IC10 Doxorubicin / 96 Hours IC10 Doxorubicin: 6-hour pretreatment with compound before IC10 doxorubicin; for 72 Hours IC30 Doxorubicin / 96 Hours IC30 Doxorubicin: 6-hour pretreatment with compound before IC30 doxorubicin
Description: (§1) CellTiter-Blue® Reagent Method: Following incubation with test compounds for 72 or 96 hours, human MD-MBA-231 breast cancer cells were briefly washed, […] stained with the CellTiter-Blue® Reagent resazurin. Resazurin measures the metabolic capacity of cells, an indicator of cell viability. Viable cells retain the ability to reduce resazurin into resorufin, that is highly fluorescent. […] This test measures the degree of cytotoxicity caused by the test material. IC50 determination: Data are expressed as the percentage of survival of the untreated (vehicle) control calculated from the fluorescence corrected for background absorbance. The surviving fraction of cells were determined by dividing the mean fluorescence values of the test agents by the mean fluorescence values of untreated control. The inhibitory concentration value for the test agent(s) and control were estimated using Prism 4 software (GraphPad Software, Inc.) by curve-fitting the data using the non-linear regression analysis. In some instances IC50 values could not be extrapolated and these are marked (*). Compounds of the invention were tested as monotherapy and results presented in TABLE 1 Compounds of the invention were tested in combination with inhibitory concentration 30% and 10% (IC30/IC10) of Adriamycin (doxorubicin) following 6 hours of pretreatment with example compounds and results presented in TABLE 3

[2] = test system: human MD-MBA-231 breast cancer cells; assay: CellTiter-Blue cell viability, monotherapy
Description: as §1, with “(*).” for “(*). Compounds of the invention were tested as monotherapy and results presented in TABLE 1 Compounds of the invention were tested in combination with inhibitory concentration 30% and 10% (IC30/IC10) of Adriamycin (doxorubicin) following 6 hours of pretreatment with example compounds and results presented in TABLE 3”

[3] = test system: human MD-MBA-231 breast cancer cells; assay: CellTiter-Blue cell viability, concurrent combination treatment with doxorubicin; settings: for 72 Hours IC10 Doxorubicin / 96 Hours IC10 Doxorubicin: concurrent combination with IC10 of Adriamycin (doxorubicin); for 72 Hours IC30 Doxorubicin / 96 Hours IC30 Doxorubicin: concurrent combination with IC30 of Adriamycin (doxorubicin)
Description: as §1, with “(doxorubicin)” for “(doxorubicin) following 6 hours of pretreatment with example compounds”, “TABLE 2” for “TABLE 3”

[4] = 72 hours incubation, read-out: 72 Hours Treatment IC50
[5] = 96 hours incubation, read-out: 96 Hours Treatment IC50

| Compound | 72 Hours IC10 Doxorubicin [1] [µM] | 96 Hours IC10 Doxorubicin [1] [µM] | 72 Hours IC30 Doxorubicin [1] [µM] | 96 Hours IC30 Doxorubicin [1] [µM] | IC50 [2, 4] [µM] | IC50 [2, 5] [µM] | 72 Hours IC10 Doxorubicin [3] [µM] | 96 Hours IC10 Doxorubicin [3] [µM] | 72 Hours IC30 Doxorubicin [3] [µM] | 96 Hours IC30 Doxorubicin [3] [µM] |
| --- | --- | --- | --- | --- | --- | --- | --- | --- | --- | --- |
| CC(=O)N[C@@H](CS)C(=O)NCCC[Si](C)(C)C [Eample 1, (R)-2-acetamido-3-mercapto-N-(3-(trimethylsilyl)propyl)propanamide] | 27.13 | 34.20 | 10.04 | 2.162 | 21.6 | 18.8 | 7.49 | 6.703 | 29.67 | 26.70 |
| CC(=O)N[C@@H](CS)C(=O)O [N-Acetyl-L-Cysteine, reference compound] | 499.10 | 454.10 | – | – | 277 | – | 129.70 | – | 639.30 | 925.2 |
| CC(=O)N[C@@H](CS)C(=O)NC[Si](C)(C)C [Example 2, (R)-2-acetamido-3-mercapto-N-((trimethylsilyl)methyl)propanamide] | 210.70 | – | 56.64 | 14.68 | 132 | 136 | 49.42 | 34.55 | 269.0 | – |
| CC(=O)N[C@@H](CS)C(=O)NC[Si](C)(C)c1ccccc1 [Example 3, (R)-2-acetamido-N-((dimethyl(phenyl)silyl)methyl)-3-mercaptopropanamide] | 35.69 | 37.88 | 11.21 | 3.799 | 28.1 | 24.3 | 8.553 | 9.479 | 39.29 | 30.63 |

Source: patent US20090306015A1, “PHARMACEUTICAL COMPOSITIONS AND METHODS OF USE OF HIGHLY LIPOPHILIC SULFHYDRYL COMPOUNDS” (Silamed, Inc., priority 2005, published 2009)
